Measured values from patent US20050282755A1, “Compositions having antimicrobial activity and uses thereof” (priority 2004, published 2005).
In brackets after ≈: the same amount, converted by molar mass. Starred links: 1 amine or outer side, 2 acyl side, 3 side chain; linkers in the order of their positions; H or OH if unused. Non-standard residues stand in square brackets, D forms with d. Residues, ends and D or L forms follow the SMILES beside them. *: point of attachment. Ethylenediamine = C(CN[*:2])N[*:1]; Lauroyl = CCCCCCCCCCCC(=O)*; Decanoyl = CCCCCCCCCC(=O)*; Octanoyl = CCCCCCCC(=O)*

Legend:
Assay type in all cases: cell-based
[1] = test system: Escherichia coli ATCC 25922; assay: MIC, NCCLS M7-A6 broth microdilution (Table 9, no superscript); settings: ATCC 25922
Procedure, shortened: (§1)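 MIC determined by microdilution in cation-adjusted Mueller Hinton broth after overnight growth at 37° C, defined as the lowest peptide level lacking turbidity.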

[2] = test system: Staphylococcus epidermidis ATCC 12228; assay: as above; settings: ATCC 12228
Procedure, shortened: as §1

[3] = test system: Salmonella dublin (Lane); assay: as above
Procedure, shortened: as §1

[4] = test system: Pseudomonas aeruginosa ATCC 27853; assay: as above; settings: ATCC 27853
Procedure, shortened: as §1

[5] = test system: Propionibacterium acnes ATCC 6919; assay: MIC, agar dilution method NCCLS M11-A6, Brucella agar, anaerobic (Table 9, superscript c); settings: ATCC 6919
Method: A bacterial suspension was prepared to allow for a final inoculum on the plate of 1.5×10^8 CFU/milliliter. After the suspension absorbed into the agar surface, the plates were incubated for 48-96 hours at 37° C. in a GasPak anaerobic chamber. The lowest concentration of peptide that contained no colony growth on the agar plate was determined as the MIC. MIC values that utilized this method of MIC determination are indicated in Table 9 with a superscript letter “c.”

[6] = test system: Staphylococcus aureus ATCC 29213; assay: MIC, NCCLS M7-A6 broth microdilution, cation-adjusted Mueller Hinton broth (Table 9, no superscript); settings: ATCC 29213
Procedure, shortened: as §1

SMILES	MIC E. coli [1] [µg/mL]	MIC S. epidermidis [2] [µg/mL]	MIC S. dublin [3] [µg/mL]	MIC P. aeruginosa [4] [µg/mL]	MIC P. acnes [5] [c ug/mL]	MIC S. aureus [6] [µg/mL]
CCCCCCCCCCCC(=O)N[C@H](CCCNC(=N)N)C(=O)N[C@H](CCCCN)C(=O)N[C@H](CCCNC(=N)N)C(=O)N[C@H](Cc1c[nH]c2ccccc12)C(=O)N[C@H](CCCNC(=N)N)C(=O)N[C@H](CCC(=O)O)C(=O)N[C@@H](C(=O)N[C@H](C)C(=O)N[C@H](CCCNC(=N)N)C(=O)N[C@H](CC(N)=O)C(=O)N[C@H](Cc1ccccc1)C(=O)N[C@H](CC(C)C)C(=O)N[C@H](CCCNC(=N)N)C(N)=O)C(C)C [Peptide 220, Lauryl-rkrwrevarnflr-NH2] (Lauroyl-[dR][dK][dR][dW][dR][dE][dV][dA][dR][dN][dF][dL][dR]-NH2)	4 (≈ 2.03 µM)	1 (≈ 0.508 µM)	2 (≈ 1.02 µM)	8 (≈ 4.06 µM)	16	2 (≈ 1.02 µM)
CCCCCCCCCCCC(=O)N[C@H](CCCNC(=N)N)C(=O)N[C@H](CO)C(=O)N[C@H](CCCNC(=N)N)C(=O)N[C@H](Cc1c[nH]c2ccccc12)C(=O)N[C@H](CCCNC(=N)N)C(=O)N[C@H](C)C(=O)N[C@@H](C(=O)N[C@H](C)C(=O)N[C@H](CCCNC(=N)N)C(=O)N[C@H](CC(N)=O)C(=O)N[C@H](Cc1ccccc1)C(=O)N[C@H](CC(C)C)C(=O)N[C@H](CCCNC(=N)N)C(N)=O)C(C)C [Peptide 225, Lauryl-rsrwravarnflr-NH2] (Lauroyl-[dR][dS][dR][dW][dR][dA][dV][dA][dR][dN][dF][dL][dR]-NH2)	16 (≈ 8.56 µM)	2 (≈ 1.07 µM)	1 (≈ 0.535 µM)	16 (≈ 8.56 µM)	8	1 (≈ 0.535 µM)
CCCCCCCCCCCC(=O)N[C@H](CCCNC(=N)N)C(=O)N[C@H](Cc1c[nH]c2ccccc12)C(=O)N[C@H](CCCNC(=N)N)C(=O)N[C@H](C)C(=O)N[C@@H](C(=O)N[C@H](C)C(=O)N[C@H](CCCNC(=N)N)C(N)=O)C(C)C [Peptide 246, Lauryl-rwravar-NH2] (Lauroyl-[dR][dW][dR][dA][dV][dA][dR]-NH2)	32 (≈ 29.2 µM)	2 (≈ 1.83 µM)	>64	>64	32	4 (≈ 3.65 µM)
CCCCCCCC(=O)NCCNC(=O)[C@H](CCCNC(=N)N)NC(=O)[C@H](CC(C)C)NC(=O)[C@H](Cc1ccccc1)NC(=O)[C@H](CC(N)=O)NC(=O)[C@H](CCCNC(=N)N)NC(=O)[C@H](C)NC(=O)[C@@H](NC(=O)[C@H](CC(=O)O)NC(=O)[C@H](CCCNC(=N)N)NC(=O)[C@H](Cc1c[nH]c2ccccc12)NC(=O)[C@H](CCCNC(=N)N)NC(=O)[C@H](CO)NC(=O)[C@@H](N)CCCNC(=N)N)C(C)C [Peptide 169, H2N-RSRWRDVARNFLR-Ethylamidooctanyl] (H-RSRWRDVARNFLR-{Ethylenediamine-Octanoyl}; C-terminus assumed)	2 (≈ 1.05 µM)	1 (≈ 0.526 µM)	8 (≈ 4.21 µM)	4 (≈ 2.1 µM)	64	4 (≈ 2.1 µM)
CCCCCCCCCCCC(=O)N[C@@H](CCCNC(=N)N)C(=O)N[C@@H](Cc1c[nH]c2ccccc12)C(=O)N[C@@H](CCCNC(=N)N)C(=O)N[C@@H](CC(=O)O)C(=O)N[C@H](C(=O)N[C@@H](C)C(=O)N[C@@H](CCCNC(=N)N)C(=O)N[C@@H](CC(N)=O)C(=O)N[C@@H](Cc1ccccc1)C(=O)N[C@@H](CC(C)C)C(=O)N[C@@H](CCCNC(=N)N)C(N)=O)C(C)C [Peptide 163, Lauryl-RWRDVARNFLR-NH2] (Lauroyl-RWRDVARNFLR-NH2)	16 (≈ 9.58 µM)	8 (≈ 4.79 µM)	8 (≈ 4.79 µM)	>64	>64	4 (≈ 2.4 µM)

More lines, now with the values ahead:

MIC E. coli [1] [µg/mL]	MIC S. epidermidis [2] [µg/mL]	MIC S. dublin [3] [µg/mL]	MIC P. aeruginosa [4] [µg/mL]	MIC P. acnes [5] [c ug/mL]	MIC S. aureus [6] [µg/mL]	SMILES
8 (≈ 4.55 µM)	2 (≈ 1.14 µM)	4 (≈ 2.28 µM)	64 (≈ 36.4 µM)	2	4 (≈ 2.28 µM)	CCCCCCCCCCCC(=O)N[C@H](CO)C(=O)N[C@H](CCCNC(=N)N)C(=O)N[C@H](Cc1c[nH]c2ccccc12)C(=O)N[C@H](CCCNC(=N)N)C(=O)N[C@H](CC(=O)O)C(=O)N[C@@H](C(=O)N[C@H](C)C(=O)N[C@H](CCCNC(=N)N)C(=O)N[C@H](CC(N)=O)C(=O)N[C@H](Cc1ccccc1)C(=O)N[C@H](CC(C)C)C(=O)N[C@H](CCCNC(=N)N)C(N)=O)C(C)C [Peptide 212, Lauryl-srwrdvarnflr-NH2] (Lauroyl-[dS][dR][dW][dR][dD][dV][dA][dR][dN][dF][dL][dR]-NH2)
8 (≈ 4.2 µM)	2 (≈ 1.05 µM)	32 (≈ 16.8 µM)	32 (≈ 16.8 µM)	>64	8 (≈ 4.2 µM)	CCCCCCCCCC(=O)N[C@@H](CCCNC(=N)N)C(=O)N[C@@H](CO)C(=O)N[C@@H](CCCNC(=N)N)C(=O)N[C@@H](Cc1c[nH]c2ccccc12)C(=O)N[C@@H](CCCNC(=N)N)C(=O)N[C@@H](CC(=O)O)C(=O)N[C@H](C(=O)N[C@@H](C)C(=O)N[C@@H](CCCNC(=N)N)C(=O)N[C@@H](CC(N)=O)C(=O)N[C@@H](Cc1ccccc1)C(=O)N[C@@H](CCSC)C(=O)N[C@@H](CCCNC(=N)N)C(N)=O)C(C)C [Peptide 204, Decanyl-RSRWRDVARNFMR-NH2] (Decanoyl-RSRWRDVARNFMR-NH2)
>64	>64	8 (≈ 4.2 µM)	>64	2	4 (≈ 2.1 µM)	CCCCCCCCCC(=O)N[C@H](CCCNC(=N)N)C(=O)N[C@H](CO)C(=O)N[C@H](CCCNC(=N)N)C(=O)N[C@H](Cc1c[nH]c2ccccc12)C(=O)N[C@H](CCCNC(=N)N)C(=O)N[C@H](CC(=O)O)C(=O)N[C@@H](C(=O)N[C@H](C)C(=O)N[C@H](CCCNC(=N)N)C(=O)N[C@H](CC(N)=O)C(=O)N[C@H](Cc1ccccc1)C(=O)N[C@H](CCSC)C(=O)N[C@H](CCCNC(=N)N)C(N)=O)C(C)C [Peptide 208, Decanyl-rsrwrdvarnfmr-NH2] (Decanoyl-[dR][dS][dR][dW][dR][dD][dV][dA][dR][dN][dF][dM][dR]-NH2)
>64	16 (≈ 14.6 µM)	>64	>64	>64	8 (≈ 7.29 µM)	CCCCCCCCCCCC(=O)N[C@@H](Cc1c[nH]c2ccccc12)C(=O)N[C@@H](CCCNC(=N)N)C(=O)N[C@@H](CC(=O)O)C(=O)N[C@H](C(=O)N[C@@H](C)C(=O)N[C@@H](CCCNC(=N)N)C(=O)N[C@@H](CC(N)=O)C(N)=O)C(C)C [Peptide 106, Lauryl-WRDVARN-NH2] (Lauroyl-WRDVARN-NH2)
8 (≈ 4.74 µM)	2 (≈ 1.18 µM)	16 (≈ 9.48 µM)	>64	>64	4 (≈ 2.37 µM)	CCCCCCCCCCCC(=O)N[C@@H](CCCNC(=N)N)C(=O)N[C@@H](Cc1c[nH]c2ccccc12)C(=O)N[C@@H](CCCNC(=N)N)C(=O)N[C@@H](CC(=O)O)C(=O)N[C@H](C(=O)N[C@@H](C)C(=O)N[C@@H](CCCNC(=N)N)C(=O)N[C@@H](CC(N)=O)C(=O)N[C@@H](Cc1ccccc1)C(=O)N[C@@H](CCSC)C(=O)N[C@@H](CCCNC(=N)N)C(N)=O)C(C)C [Peptide 113, Lauryl-RWRDVARNFMR-NH2] (Lauroyl-RWRDVARNFMR-NH2)
32 (≈ 28.1 µM)	8 (≈ 7.02 µM)	>32	32 (≈ 28.1 µM)	32	16 (≈ 14 µM)	CCCCCCCCCCCC(=O)N[C@@H](CCCNC(=N)N)C(=O)N[C@@H](Cc1c[nH]c2ccccc12)C(=O)N[C@@H](CCCNC(=N)N)C(=O)N[C@@H](CC(=O)O)C(=O)N[C@H](C(=O)N[C@@H](C)C(=O)N[C@@H](CCCNC(=N)N)C(N)=O)C(C)C [Peptide 105, Lauryl-RWRDVAR-NH2] (Lauroyl-RWRDVAR-NH2)
8 (≈ 4.09 µM)	2 (≈ 1.02 µM)	4 (≈ 2.05 µM)	4 (≈ 2.05 µM)	16	4 (≈ 2.05 µM)	CCCCCCCCCCCC(=O)N[C@H](CCCNC(=N)N)C(=O)N[C@H](CCCCN)C(=O)N[C@H](CCCNC(=N)N)C(=O)N[C@H](Cc1c[nH]c2ccccc12)C(=O)N[C@H](CCCNC(=N)N)C(=O)N[C@H](CC(=O)O)C(=O)N[C@@H](C(=O)N[C@H](C)C(=O)N[C@H](CCCNC(=N)N)C(=O)N[C@H](CC(N)=O)C(=O)N[C@H](Cc1ccccc1)C(=O)N[C@H](CC(C)C)C(=O)N[C@H](CCCNC(=N)N)C(N)=O)C(C)C [Peptide 219, Lauryl-rkrwrdvarnflr-NH2] (Lauroyl-[dR][dK][dR][dW][dR][dD][dV][dA][dR][dN][dF][dL][dR]-NH2)
